Data reported in PMC6254361, “The properties of Msh2–Msh6 ATP binding mutants suggest a signal amplification mechanism in DNA mismatch repair” (The Journal of Biological Chemistry, 2018).

Molecular target: T1, Msh2–Msh6 (Saccharomyces cerevisiae, UniProt P25847+Q03834, P25847:K694A)
T1 sequence (P25847 1-964 K694A): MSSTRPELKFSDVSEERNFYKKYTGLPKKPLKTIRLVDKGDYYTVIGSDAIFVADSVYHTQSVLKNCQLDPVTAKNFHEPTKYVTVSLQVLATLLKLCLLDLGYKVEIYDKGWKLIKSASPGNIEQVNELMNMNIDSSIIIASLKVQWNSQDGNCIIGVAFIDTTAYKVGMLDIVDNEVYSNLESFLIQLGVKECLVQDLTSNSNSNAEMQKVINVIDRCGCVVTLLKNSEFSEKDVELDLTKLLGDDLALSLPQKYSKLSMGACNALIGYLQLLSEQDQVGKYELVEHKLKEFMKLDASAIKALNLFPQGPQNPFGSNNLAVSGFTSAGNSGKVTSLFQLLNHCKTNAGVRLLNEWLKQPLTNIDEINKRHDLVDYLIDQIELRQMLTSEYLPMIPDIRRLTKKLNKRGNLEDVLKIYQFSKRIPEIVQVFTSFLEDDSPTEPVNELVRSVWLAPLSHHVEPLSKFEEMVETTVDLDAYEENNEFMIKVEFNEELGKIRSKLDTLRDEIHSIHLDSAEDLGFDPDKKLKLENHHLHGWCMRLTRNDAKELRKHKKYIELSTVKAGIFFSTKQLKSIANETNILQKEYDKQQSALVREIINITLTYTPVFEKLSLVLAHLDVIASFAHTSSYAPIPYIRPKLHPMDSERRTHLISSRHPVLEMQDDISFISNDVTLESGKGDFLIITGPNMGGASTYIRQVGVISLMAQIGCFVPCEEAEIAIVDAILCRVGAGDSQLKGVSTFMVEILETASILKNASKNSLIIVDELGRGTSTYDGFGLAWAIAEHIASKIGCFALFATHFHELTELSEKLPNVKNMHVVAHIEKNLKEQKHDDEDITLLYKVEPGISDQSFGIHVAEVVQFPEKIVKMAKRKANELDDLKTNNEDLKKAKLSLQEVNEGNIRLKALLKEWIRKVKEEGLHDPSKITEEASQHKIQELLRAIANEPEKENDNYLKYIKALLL
T1 sequence (Q03834 1-1242): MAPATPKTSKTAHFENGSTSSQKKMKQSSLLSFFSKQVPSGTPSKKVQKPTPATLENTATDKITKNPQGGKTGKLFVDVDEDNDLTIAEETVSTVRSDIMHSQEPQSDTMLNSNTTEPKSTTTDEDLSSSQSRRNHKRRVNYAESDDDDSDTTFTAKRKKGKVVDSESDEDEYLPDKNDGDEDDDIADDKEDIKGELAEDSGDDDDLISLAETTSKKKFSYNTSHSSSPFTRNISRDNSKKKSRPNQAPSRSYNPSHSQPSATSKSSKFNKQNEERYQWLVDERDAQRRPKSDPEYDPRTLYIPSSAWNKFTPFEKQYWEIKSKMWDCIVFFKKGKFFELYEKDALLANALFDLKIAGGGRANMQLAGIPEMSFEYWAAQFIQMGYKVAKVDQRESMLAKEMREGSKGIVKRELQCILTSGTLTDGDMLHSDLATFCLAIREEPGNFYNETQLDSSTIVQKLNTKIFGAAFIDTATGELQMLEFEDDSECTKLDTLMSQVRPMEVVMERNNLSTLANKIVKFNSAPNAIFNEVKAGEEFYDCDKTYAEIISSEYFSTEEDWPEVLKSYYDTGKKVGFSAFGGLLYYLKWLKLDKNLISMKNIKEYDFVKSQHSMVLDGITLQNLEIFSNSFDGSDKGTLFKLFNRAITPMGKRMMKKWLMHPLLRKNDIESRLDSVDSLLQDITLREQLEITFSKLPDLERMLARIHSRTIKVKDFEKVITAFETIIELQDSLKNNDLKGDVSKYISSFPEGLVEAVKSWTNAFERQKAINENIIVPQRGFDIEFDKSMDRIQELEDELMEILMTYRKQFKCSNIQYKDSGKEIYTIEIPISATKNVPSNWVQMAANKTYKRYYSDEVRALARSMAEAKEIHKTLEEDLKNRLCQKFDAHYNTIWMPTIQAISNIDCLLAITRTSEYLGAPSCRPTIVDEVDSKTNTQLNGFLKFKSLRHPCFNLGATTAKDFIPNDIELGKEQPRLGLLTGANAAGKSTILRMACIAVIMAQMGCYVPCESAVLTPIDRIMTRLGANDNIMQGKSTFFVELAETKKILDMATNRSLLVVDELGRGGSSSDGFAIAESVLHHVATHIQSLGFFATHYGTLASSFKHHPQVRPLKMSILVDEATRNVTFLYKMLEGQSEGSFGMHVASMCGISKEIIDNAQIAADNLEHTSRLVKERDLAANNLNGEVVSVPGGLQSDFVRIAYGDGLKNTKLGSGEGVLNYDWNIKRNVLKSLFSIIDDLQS
Assay: UV cross-linking of [γ-32P]ATP, SDS-PAGE, phosphorimaging
Format: binding
Conditions: labelled compound; no Mg2+, EDTA, pH 8, on ice; Msh2 site at 60 μM ATP, Msh6 site at 1 μM ATP

**Q.** Which “relative ATP binding” value does the source give for `Nc1ncnc2c1ncn2[C@@H]1O[C@H](COP(=O)(O)OP(=O)(O)OP(=O)(O)O)[C@@H](O)[C@H]1O` [ATP] here?
**A.** The value was “Msh2(K694A)–Msh6 and Msh2(K694R)–Msh6 mutant complexes were defective for ATP binding to both”.
